From US10465230B2, “Chemiluminescence-based haemostasis assay” (Stichting Katholieke Universiteit, priority 2010, dated 2019)
Structures can show the parent of a compound that is named as a salt.

How the values were obtained:
Type in all cases: biochemical
thrombin [1] = target: T1, thrombin (Homo sapiens, UniProt P00734); assay: Chemiluminescent substrate cleavage by purified thrombin (luciferase/ATP luminescence); conditions: for RLU thrombin: 30 nM thrombin final, instead of plasma, assay as example 1; for RLU thrombin/RLU plasmin: ratio of signal with 30 nM thrombin to signal with 40 nM plasmin
T1 construct: allowing factor Xa to convert prothrombin to thrombin
Method: (§1) In a 96-wells plate (final volume 120 μl), the following components were added:
(§2) 10 μl MeO—(CH2CH2O)2-acetyl-beta-Ala-Gly-Arg-aminoluciferin TFA salt (thrombin specific substrate (10 mM)), or pyroGlu-Phe-Lys-aminoluciferin TFA salt (plasmin specific substrate (10 mM))
(§3) 2 μl Luciferase (Sigma, 72 μg/ml),
(§4) 2 μl ATP (Sigma, 0.33 mM),
(§5) 14 μl TRIS/NaCl buffer (50 mM TRIS and 150 mM NaCl, pH 7.4).
(§6) This reaction mixture was mixed, followed by the addition of 4 μl TRIS/NaCl buffer with Ca^2+ to start thrombin generation. Final concentration 16.7 mM. The resultant was mixed rapidly, and thrombin generation was monitored in a Fluostar. The settings of the Fluostar were: 140 cycli of 30 seconds, Gain: Maximum=4095. Prior to measurement, 25 μl reaction mixture was taken from the well having a total volume of 120 μl. This was pipetted in a 384-well multi-titre plate suitable for measuring luminescence. The measurement was started immediately. Luminescence is depicted in Relative luminescence units (RLU).
Various substrates were analyzed using thrombin and plasmin The assay was essentially performed as described in example 1. However, instead of plasma, plasmin or thrombin were added to final concentrations of 30 nM (thrombin) or 40 nM (plasmin).

plasmin = plasmin (Homo sapiens, UniProt P00747); assay: Chemiluminescent substrate cleavage by purified plasmin (luciferase/ATP luminescence); conditions: for RLU plasmin: 40 nM plasmin final, instead of plasma, assay as example 1
Method: as §1, §2, §3, §4, §5, §6
Various substrates were analyzed using thrombin and plasmin The assay was essentially performed as described in example 1. […]

thrombin [2] = target: T1, thrombin; assay: Chemiluminescent substrate cleavage by purified thrombin (luciferase/ATP luminescence); conditions: 150 nM thrombin vs 40 nM plasmin in TBS buffer

plasmin, sequence (P00747 581-810 limits assumed, species assumed): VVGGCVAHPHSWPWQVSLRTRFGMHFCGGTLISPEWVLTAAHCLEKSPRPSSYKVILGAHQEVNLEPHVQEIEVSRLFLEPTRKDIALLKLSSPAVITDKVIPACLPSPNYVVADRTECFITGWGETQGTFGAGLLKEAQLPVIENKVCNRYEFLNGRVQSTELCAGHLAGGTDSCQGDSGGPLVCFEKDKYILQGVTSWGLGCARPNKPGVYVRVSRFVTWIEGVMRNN
plasmin, sequence (P00747 97-580 partner limits assumed, species assumed): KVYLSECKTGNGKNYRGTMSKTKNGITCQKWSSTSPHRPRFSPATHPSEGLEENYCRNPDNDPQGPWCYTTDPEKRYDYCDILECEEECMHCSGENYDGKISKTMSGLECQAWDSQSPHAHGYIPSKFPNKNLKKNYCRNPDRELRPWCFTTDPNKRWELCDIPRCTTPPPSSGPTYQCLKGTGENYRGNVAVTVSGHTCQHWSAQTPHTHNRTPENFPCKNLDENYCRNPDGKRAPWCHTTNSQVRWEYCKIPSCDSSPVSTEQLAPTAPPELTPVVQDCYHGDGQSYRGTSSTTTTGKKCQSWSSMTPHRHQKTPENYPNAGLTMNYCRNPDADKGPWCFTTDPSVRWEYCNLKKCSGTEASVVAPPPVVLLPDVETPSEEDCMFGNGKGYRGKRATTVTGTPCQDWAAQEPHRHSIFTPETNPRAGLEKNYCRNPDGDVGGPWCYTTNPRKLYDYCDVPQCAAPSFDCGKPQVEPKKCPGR

| Structure (SMILES) | RLU thrombin (thrombin [1]) | RLU thrombin/RLU plasmin (thrombin [1]) | RLU plasmin (plasmin) | reactivity of thrombin and plasmin on the S1 substrate (FIG. 1a) (thrombin [2]) | reactivity of thrombin and plasmin on the S2 substrate (FIG. 1b) (plasmin; 4 nM plasmin vs 15 nM thrombin in TBS buffer) |
| --- | --- | --- | --- | --- | --- |
| N=C(N)NCCC[C@H](NC(=O)CNC(=O)CNC(=O)OCc1ccccc1)C(=O)Nc1ccc2nc(C3=N[C@@H](C(=O)O)CS3)sc2c1.O=C(O)C(F)(F)F [Cbz-Gly-Gly-Arg-aminoluciferine•TFA] | 771302 RLU | 5.3 | 146486 RLU |  |  |
| COCCOCCOCC(=O)NCCC(=O)NCC(=O)NC(CCCNC(=N)N)C(=O)Nc1ccc2nc(C3=NC(C(=O)O)CS3)sc2c1.O=C(O)C(F)(F)F (stereo not drawn) [MeO—(CH2CH2O)2-acetyl-beta-Ala-Gly-Arg-aminoluciferin TFA salt] |  |  |  | more susceptible for their respective enzyme |  |
| COCCOCCOCC(=O)NC(Cc1ccccc1)C(=O)NC(CCCNC(=N)N)C(=O)Nc1ccc2nc(C3=NC(C(=O)O)CS3)sc2c1.O=C(O)C(F)(F)F (stereo not drawn) [CH3O—(CH2CH2O)2-acetyl-Phe-Arg-aminoluciferine•TFA] | 300946 RLU | 0.40 | 759874 RLU |  |  |
| N=C(N)NCCC[C@H](NC(=O)CNC(=O)CCN)C(=O)Nc1ccc2nc(C3=N[C@@H](C(=O)O)CS3)sc2c1.O=C(O)C(F)(F)F.O=C(O)C(F)(F)F [H-beta-Ala-Gly-Arg-aminoluciferine•2TFA] | 292161 RLU | 4.7 | 62387 RLU |  |  |
| COCC(=O)NCCC(=O)NCC(=O)N[C@@H](CCCNC(=N)N)C(=O)Nc1ccc2nc(C3=N[C@@H](C(=O)O)CS3)sc2c1.O=C(O)C(F)(F)F [CH3O-acetyl-beta-Ala-Gly-Arg-aminoluciferine•TFA] | 925567 RLU | 3.1 | 294631 RLU |  |  |
| COCCOCCOCCOCCOCC(=O)NCCC(=O)NCC(=O)N[C@@H](CCCNC(=N)N)C(=O)Nc1ccc2nc(C3=N[C@@H](C(=O)O)CS3)sc2c1.O=C(O)C(F)(F)F [CH3O—(CH2CH2O)4-acetyl-beta-Ala-Gly-Arg-aminoluciferine•TFA] | 293198 RLU | 2.2 | 134983 RLU |  |  |
| COCCOCCOCCOCCOCC(=O)NC(Cc1ccccc1)C(=O)NC(CCCNC(=N)N)C(=O)Nc1ccc2nc(C3=NC(C(=O)O)CS3)sc2c1.O=C(O)C(F)(F)F (stereo not drawn) [CH3O—(CH2CH2O)4-acetyl-Phe-Arg-aminoluciferine•TFA] | 340768 RLU | 0.27 | 1282351 RLU |  |  |
| COCCOCCOCC(=O)NCCC(=O)NCC(=O)N[C@@H](CCCNC(=N)N)C(=O)Nc1ccc2nc(C3=N[C@@H](C(=O)O)CS3)sc2c1 [MeO—(CH2CH2O)2-acetyl-beta-Ala-Gly-Arg-aminoluciferin TFA salt] | 814171 RLU | 3.2 | 251299 RLU |  |  |
| NCCCC[C@H](NC(=O)[C@H](Cc1ccccc1)NC(=O)[C@@H]1CCC(=O)N1)C(=O)Nc1ccc2nc(C3=N[C@@H](C(=O)O)CS3)sc2c1 [PyroGlu-Phe-Lys-aminoluciferine•TFA, pyroGlu-Phe-Lys-aminoluciferin TFA salt] | 139546 RLU | 0.07 | 1999875 RLU |  | more susceptible for their respective enzyme |
